# Assay results reported in patent publication US20240174631A1, “COMPOUNDS, COMPOSITIONS, AND METHODS FOR MODULATING FGF ACTIVITY” (Recovery Therapeutics, Inc., priority 2021, published 2024).
# Legend:
# [1] = tested on: rodent model of stroke recovery (MCAO); assay: Stroke recovery in vivo after middle cerebral artery occlusion (MCAO): limb placing and body swing tests; settings: rat MCAO; 10 mg/kg i.v. on Day 1, 2 and 3 after MCAO; vs vehicle, p<0.001; up to Day 21
# Method: Compound 2 (2-(1-benzhydrylpiperidin-4-yl)-N,N-diethyl-1,2,3,4-tetrahydroisoquinolin-6-amine) was tested for its effectiveness in a rodent model of stroke recovery. Twenty male Sprague Dawley Rats (Charles River Laboratories) each weighing 300-400 g were used in this experiment. First, anesthesia was induced in an induction chamber with 2-3% isoflurane in N2O:O2 (2:1) and maintained with 1-1.5% isoflurane via face mask. Adequate depth of anesthesia was assessed by lack of withdrawal to hindlimb pinch and loss of eyeblink reflex. Once anesthetized, animals received cefazolin sodium (40 mg/kg, i.p.) and buprenorphine SR (0.9-1 mg/kg, s.c.). Cefazolin was used as a prophylactic antibiotic. A veterinary ophthalmic ointment (Sodium Chloride hypertonicity ophthalmic ointment (Muro 128 Sterile Ophthalmic 5% Ointment)) was applied to the eyes. […]
# Behavioral evaluations of sensorimotor function were done by investigators blinded to treatment assignment. […] For the forelimb-placing test, the examiner held the rat close to a tabletop and scored the rat's ability to place the forelimb on the tabletop in response to whisker, visual, tactile, or proprioceptive stimulation. Similarly, for the hindlimb placing test, the examiner assessed the rat's ability to place the hindlimb on the tabletop in response to tactile and proprioceptive stimulation. […]
# FGF2 = biological target: T1, FGF2 (Homo sapiens, UniProt P09038); assay: Thermal shift assay (TSA) of FGFR1/FGF2 complex, FGF2 melting peak; type: binding
# T1 construct: made in house; host or cells: Escherichia coli BL21 (DE3) Star
# T1 sequence (P09038 156-288 limits assumed): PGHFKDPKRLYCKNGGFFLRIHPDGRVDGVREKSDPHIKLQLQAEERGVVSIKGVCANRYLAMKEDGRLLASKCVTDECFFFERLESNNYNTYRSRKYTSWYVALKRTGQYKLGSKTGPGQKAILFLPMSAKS
# T1 sequence (P11362 142-365 partner limits assumed): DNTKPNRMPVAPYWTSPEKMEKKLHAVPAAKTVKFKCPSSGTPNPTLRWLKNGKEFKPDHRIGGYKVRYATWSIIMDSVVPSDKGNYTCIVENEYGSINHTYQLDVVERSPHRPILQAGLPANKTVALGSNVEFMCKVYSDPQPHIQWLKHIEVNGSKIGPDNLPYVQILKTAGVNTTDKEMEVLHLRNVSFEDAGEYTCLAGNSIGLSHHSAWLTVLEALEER
# Description: TSA was utilized to biophysically characterize the recombinant human FGFR1/FGF2 complex in the presence or absence of compounds. The assay functions by protein denaturation over a temperature gradient. During protein unfolding, exposed hydrophobic regions bind a dye and fluoresce due to solvent relaxation effects. Changes in the melting temperature of the protein complex in the presence of each compound were monitored and compounds were screened/ranked using this method.
# One Shot BL21 (DE3) Star Escherichia coli competent cells (Thermo Fisher) were transformed with a relevant FGF2 plasmid and inoculated onto Ampicillin Luria Broth/Agar plates. Two hundred milliliter portions of Terrific Broth starter cultures were used to inoculate 9 L cultures with ampicillin at a concentration of 100 μg/mL. Cultures were grown to an O.D.600 near 1.0 at 37° C., and induced with IPTG overnight at 18° C. The cells were harvested at 7000 RPM in rotor 6000 for 5 min at 4° C. and stored at −80° C. Bacterial pellets were resuspended in 25 mM Hepes-NaOH, pH 7.5, 250 mM NaCl, and the cells were lysed in 3 cycles on/off for 3 minutes each at 4° C. via sonication. After centrifugation for 30 minutes at 16,000 RPM at 4° C., the isolated pellets were discarded, and the supernatant was filtered supernatant through a […] PES filter using 100 mL superloop. The lysate was purified over a 5 mL S column by washing the column with Lysis buffer for 5 CV then eluting using gradient from 250 mM to 1 M NaCl over 20 CV. The fractions containing FGF2 were identified via SDS-PAGE gel (Expected Mw: 15.2 KDa). The protein was collected and diluted in 20 mM Tris-HCl pH 8.0, 25 mM MgCl2 buffer in order to reach a NaCl concentration of 150 mM. The purified FGF2 was concentrated and stored at −80° C.
# Thawed aliquots of purified FGF2 (1.0 mg/mL) and FGFR1 (1.6 mg/mL) proteins were mixed in a 1:1 molar ratio (64 μM: 64 μM) on ice for 30 min at 4° C. and plated prior to the thermal shift assay (TSA). Complex formation was verified by loading the complexed material on a size exclusion column (superdex 300GL S200) and observing the monodisperse peak corresponding to the FGF2/FGFR1 complex (˜40 kDa). Compounds of the invention were screened in dose response format (0-100 μM) with the FGF2/FGFR1 complex in triplicates. FGF2/FGFR1/compound complexes were mixed in a 1000:1 ratio with Sypro Orange dye (Sigma-Aldrich). The samples were processed using a Bio-Rad CFX C96 Touch quantitative polymerase chain reaction and run using the FRET assay settings with a heating ramp of 0.3° C./s cycling from 4 to 100° C. Data analysis was performed using the Bio-Rad CFX Manager Software (version 3.1, Bio-Rad) and changes in the melting temperature (Tm) of the complex in the presence of each compound were monitored. The results are shown in Tables 2 and 3 below and also in FIG. 1 (for Compound 2).
# FGFR1 = FGFR1 (Homo sapiens, UniProt P11362); assay: Phosphorylation of FGFR1 in cells expressing FGFR1 in the presence of submaximal FGF-2; type: cell-based; settings: increasing concentrations, submaximal concentration of FGF-2; FIG. 2
# FGFR1, sequence (P11362 22-822): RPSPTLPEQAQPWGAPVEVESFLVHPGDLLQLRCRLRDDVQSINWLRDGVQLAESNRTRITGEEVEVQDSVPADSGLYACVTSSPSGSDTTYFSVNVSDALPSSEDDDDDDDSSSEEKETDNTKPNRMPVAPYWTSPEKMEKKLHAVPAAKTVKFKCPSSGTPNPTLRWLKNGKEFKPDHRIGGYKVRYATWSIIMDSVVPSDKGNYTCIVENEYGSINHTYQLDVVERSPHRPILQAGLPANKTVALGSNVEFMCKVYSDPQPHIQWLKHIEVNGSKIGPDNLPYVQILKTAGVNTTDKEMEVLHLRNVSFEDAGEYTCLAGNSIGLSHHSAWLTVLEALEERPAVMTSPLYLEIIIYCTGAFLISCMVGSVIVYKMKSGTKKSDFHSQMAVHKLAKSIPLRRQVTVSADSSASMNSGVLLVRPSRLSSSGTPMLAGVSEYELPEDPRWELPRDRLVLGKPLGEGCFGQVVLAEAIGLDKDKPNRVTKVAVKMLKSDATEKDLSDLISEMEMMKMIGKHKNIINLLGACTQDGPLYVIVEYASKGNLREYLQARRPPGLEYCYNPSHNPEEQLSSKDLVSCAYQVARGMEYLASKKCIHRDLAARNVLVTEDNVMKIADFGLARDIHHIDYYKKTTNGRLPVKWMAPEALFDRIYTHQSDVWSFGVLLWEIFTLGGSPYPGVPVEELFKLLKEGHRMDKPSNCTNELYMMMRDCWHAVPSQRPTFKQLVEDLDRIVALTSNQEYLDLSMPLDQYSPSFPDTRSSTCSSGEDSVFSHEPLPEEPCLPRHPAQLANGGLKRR
# FGFR1, sequence (P09038 143-288 partner): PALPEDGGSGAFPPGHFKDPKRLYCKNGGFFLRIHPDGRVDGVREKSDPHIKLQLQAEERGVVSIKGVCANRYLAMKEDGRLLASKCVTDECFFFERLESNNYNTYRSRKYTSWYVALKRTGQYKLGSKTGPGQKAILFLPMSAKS
# Method: Cells expressing FGFR1 were exposed to increasing concentrations of Compound 2 in the presence of a submaximal concentration of FGF-2. Cells were then lysed, and the relative phosphorylation of FGFR1 was assessed using antibodies to non-phosphorylated and phosphorylated FGFR1. The results are shown in FIG. 2, which is a graph showing the phosphorylation of FGFR1 in the presence of increasing concentrations of Compound 2.
smiles,measurement,setting,value
"CCN(CC)c1ccc2c(c1)CCN(C1CCN(C(c3ccccc3)c3ccccc3)CC1)C2 [Compound 2, 2-(1-benzhydrylpiperidin-4-yl)-N,N-diethyl-1,2,3,4-tetrahydroisoquinolin-6-amine]","sensorimotor recovery (forelimb placing, hindlimb placing and body swing tests)",[1],clear and significant augmentation of sensorimotor recovery
same,ΔTm at 2 µM,FGF2; 2 μM compound,-2.5 °C
same,ΔTm at 10 µM,FGF2; 10 μM compound,-3 °C
same,phosphorylation of FGFR1,FGFR1,augmented the effects of FGF-2
